Emax data for one compound are collected here from ChEMBL document CHEMBL4421719, “Modulation of k2p channels” (2016).

The test has as its target Potassium channel subfamily K member 3 (Homo sapiens) (UniProt O14649). As to the kind of experiment: Activation of K2P3.1 (unknown origin) expressed in Xenopus oocytes assessed as effect on channel currents at -80 mV holding potential at 100 uM by two-electrode voltage clamp assay relative to control. Type of test: cell-based.

Sequence of Potassium channel subfamily K member 3 (Homo sapiens) (O14649 whole entry, looked up): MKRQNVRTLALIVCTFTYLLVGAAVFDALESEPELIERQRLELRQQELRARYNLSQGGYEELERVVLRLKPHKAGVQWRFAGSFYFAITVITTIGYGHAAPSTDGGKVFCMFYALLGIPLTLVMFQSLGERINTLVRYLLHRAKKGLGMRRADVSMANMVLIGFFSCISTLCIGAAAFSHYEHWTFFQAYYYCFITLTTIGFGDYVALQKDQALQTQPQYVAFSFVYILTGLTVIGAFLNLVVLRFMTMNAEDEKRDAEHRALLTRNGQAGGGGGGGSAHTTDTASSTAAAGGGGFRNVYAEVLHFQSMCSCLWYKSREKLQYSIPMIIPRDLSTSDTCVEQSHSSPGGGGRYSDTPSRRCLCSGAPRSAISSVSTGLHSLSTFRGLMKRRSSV

Turning to `CC1(C)c2cc(Cl)ccc2N(CCc2nnn[nH]2)c2ccc(Cl)cc21`, the Emax turned out to be 1.1%.
